Assays:
[1] = system: aldose reductase (human recombinant, expressed in SF 9 cells); assay: Aldose reductase assay, NADPH dependent reduction of glyceraldehyde; format: biochemical; details: glyceraldehyde as substrate, 37° C., plot only, no value given
Procedure: Aldose reductase assays were as described in Nishimura C., Yamaoka T., Mizutani M., Yamashita K., Akera T., Tanimoto T., Purification And Characterization Of The Recombinant Human Aldose Reductase Expressed In Baculovirus System, Biochem. Biophys. Acta, Jun. 24, 1991; 1078(2):171-8.
Briefly, Dimesna (0-20 μM) was incubated at 37° C. with aldose reductase (0.0016 units, human recombinant, expressed in SF 9 cells) and NADPH (0.15 mM) in sodium phosphate buffer (100 mM, pH 6.2). To initiate assays, glucose (10-150 mM) was added to reactions and the decrease in absorbance at 340 nm (oxidation of NADPH) was monitored. Assays were run in duplicate or triplicate. Slopes were calculated using Varian-Cary software package 2.0 and averaged. In all cases errors were 4% or less. Lineweaver Burk analysis (Enzyme Kinetics, version 1.61) was used to calculate inhibition constants.
Aldose reductase assays were as described above. Dimesna (0-30 mM) was evaluated for its effect on the NADPH dependent reduction of glyceraldehyde (0.050-6 mM) to aldose at 37° C. Assays were run in duplicate or triplicate. Slopes were calculated using Varian-Cary software package 2.0 and averaged. In all cases errors were 4% or less. Lineweaver Burk analysis (Enzyme Kinetics, version 1.61) was used to calculate inhibition constants.

[2] = system: mice; details: intravenously; cited from earlier work
[3] = system: dogs; details: intravenously; cited from earlier work
[4] = system: diabetic retinopathy; details: humans, mainly in the 1980s; cited from earlier work

| SMILES | Inhibition of Aldose Reductase (Lineweaver Burk plot) [1] | dose administered with no adverse effects [2] | dose administered with no adverse effects [3] | efficacy in slowing the progress of diabetic retinopathy [4] | tolerability in patients [4] |
| --- | --- | --- | --- | --- | --- |
| O=S(=O)([O-])CCSSCCS(=O)(=O)[O-].[Na+].[Na+] [Dimesna, disodium 2,2'-dithiobis ethane sulfonate] | Inhibition | > 3750 mg/kg | > 3750 mg/kg | – | – |
| O=C1NC(=O)[C@@]2(CCOc3ccc(F)cc32)N1 [sorbinil] | – | – | – | some efficacy | not well tolerated |

— patent publication US6043274A, “Method of treating diabetic cardiomyopathy” (priority 1999, dated 2000)
